Test results reported in ChEMBL document CHEMBL1201862, “PubChem BioAssay data set” (2004).
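Cells were grown in 96-well plates and exposed to each compound for 48 hours at five concentrations; endpoints were interpolated linearly between bracketing concentrations, or set to the highest concentration if not reached. At the GI50, growth is halved.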 Calls of active or inactive are those of the source. No stated cut-off is given here; in the data, active = GI50 up to about 1.1 µM and inactive = higher.

Assays:
Assay in all cases: NCI-60 cell line screen, 48 h
OVCAR-5 = system: OVCAR-5
SNB-19 = system: SNB-19
HCT-116 = system: HCT-116
HT-29 = system: HT-29
786-0 = system: 786-0
LOX IMVI = system: LOX IMVI
PC-3 = system: PC-3
MCF7 = system: MCF7
RXF 393 = system: RXF 393
ACHN = system: ACHN
SN12C = system: SN12C
NCI/ADR-RES = system: NCI/ADR-RES
UACC-62 = system: UACC-62
KM12 = system: KM12
U-251 = system: U-251
M14 = system: M14
OVCAR-4 = system: OVCAR-4
Malme-3M = system: Malme-3M
SNB-75 = system: SNB-75
HCC 2998 = system: HCC 2998

Row | Compound | GI50 (OVCAR-5) | GI50 (SNB-19) | GI50 (HCT-116) | GI50 (HT-29) | GI50 (786-0) | GI50 (LOX IMVI) | GI50 (PC-3) | GI50 (MCF7) | GI50 (RXF 393) | GI50 (ACHN) | GI50 (SN12C) | GI50 (NCI/ADR-RES) | GI50 (UACC-62) | GI50 (KM12) | GI50 (U-251) | GI50 (M14) | GI50 (OVCAR-4) | GI50 (Malme-3M) | GI50 (SNB-75) | GI50 (HCC 2998)
1 | O=C(O)c1ccc(Oc2nc3ccccc3s2)cc1 | > 100 µM (inactive) | > 100 µM (inactive) | > 100 µM (inactive) | > 100 µM (inactive) | > 100 µM (inactive) | > 100 µM (inactive) | > 100 µM (inactive) | > 100 µM (inactive) | > 100 µM (inactive) | > 100 µM (inactive) | > 100 µM (inactive) | > 100 µM (inactive) | > 100 µM (inactive) | > 100 µM (inactive) | > 100 µM (inactive) | > 100 µM (inactive) | > 100 µM (inactive) | > 100 µM (inactive) |  | 
2 | Cc1c(/N=C/C=C/c2ccccc2)c(=O)n(-c2ccccc2)n1C | 58.9 µM (inactive) | 30.1 µM (inactive) | 13.7 µM (inactive) | 27.5 µM (inactive) |  | 4.86 µM (inactive) | 33 µM (inactive) | 21.9 µM (inactive) | 39.7 µM (inactive) | 29.8 µM (inactive) | 16.1 µM (inactive) | 25.9 µM (inactive) | 17.2 µM (inactive) | 21.3 µM (inactive) | 15.6 µM (inactive) | 16.3 µM (inactive) | 13 µM (inactive) | 25.4 µM (inactive) |  | 
3 | CCC(C)C(=O)OC1C(=O)OC2CC3C(C)=CC(=O)C(O)C3(C)C3C4(O)OCC23C1C(C)C4O (centres undefined) | 0.0776 µM (active) | < 0.0152 µM (active) | < 0.01 µM (active) |  | < 0.0166 µM (active) | < 0.01 µM (active) | < 0.0199 µM (active) | < 0.01 µM (active) |  | < 0.0171 µM (active) | 0.0632 µM (active) | 0.347 µM (active) | < 0.0184 µM (active) | < 0.0107 µM (active) | < 0.0107 µM (active) | < 0.0146 µM (active) | 0.0314 µM (active) | < 0.0104 µM (active) | < 0.0204 µM (active) | < 0.0262 µM (active)
4 | COc1ccc(-c2cc(-c3ccncc3)nc(N)c2-c2ccc(F)cc2)cc1 | > 100 µM (inactive) | 41.5 µM (inactive) | 11.9 µM (inactive) | 11.7 µM (inactive) | 9.29 µM (inactive) | 22.8 µM (inactive) | 67.1 µM (inactive) | 24.3 µM (inactive) | 15 µM (inactive) | 3.76 µM (inactive) |  | 24.9 µM (inactive) | 71.4 µM (inactive) | 33.8 µM (inactive) | > 100 µM (inactive) | 42 µM (inactive) | 26.7 µM (inactive) | > 100 µM (inactive) | 11.5 µM (inactive) | 
5 | CCN(CC)c1ccc2cc(C(=O)Nc3ccccc3OC)c(=N)oc2c1 | 44.3 µM (inactive) | 16.1 µM (inactive) | 15.4 µM (inactive) | 12.9 µM (inactive) | 14.7 µM (inactive) | 22.9 µM (inactive) | 11.8 µM (inactive) | 16.3 µM (inactive) |  | 11.3 µM (inactive) |  | 23.7 µM (inactive) | 25.2 µM (inactive) | 33.1 µM (inactive) | 10.1 µM (inactive) | 35.2 µM (inactive) | 27.5 µM (inactive) | 32.3 µM (inactive) |  | 21.8 µM (inactive)
6 | CCOC(=O)C12OC(OCC)(CC1(OCC)OCC)C1(CC1)C2=O (centres undefined) | > 100 µM (inactive) | > 100 µM (inactive) | > 100 µM (inactive) | > 100 µM (inactive) | > 100 µM (inactive) | > 100 µM (inactive) | > 100 µM (inactive) | > 100 µM (inactive) |  | > 100 µM (inactive) | > 100 µM (inactive) | > 100 µM (inactive) |  | > 100 µM (inactive) | > 100 µM (inactive) | > 100 µM (inactive) | > 100 µM (inactive) | > 100 µM (inactive) | > 100 µM (inactive) | > 100 µM (inactive)
7 | O=C(c1ccco1)N(C(=O)N1CCC(c2ccccc2)CC1)c1ccccc1 | > 100 µM (inactive) | > 100 µM (inactive) | 42.7 µM (inactive) | 47.6 µM (inactive) | 92.9 µM (inactive) | 59.7 µM (inactive) | 22.3 µM (inactive) | 66.5 µM (inactive) | 34 µM (inactive) | > 100 µM (inactive) | > 100 µM (inactive) | 23.2 µM (inactive) | 52.1 µM (inactive) | 27.2 µM (inactive) | 76.2 µM (inactive) | 41.4 µM (inactive) |  | > 100 µM (inactive) | 1.95 µM (inactive) | 
8 | CCOC(=O)Cc1ccc(Nc2nc3cc(C(F)(F)F)ccc3nc2C(=O)OCC)cc1 | > 100 µM (inactive) | 27.5 µM (inactive) | 81.8 µM (inactive) | > 100 µM (inactive) | 23.5 µM (inactive) | > 100 µM (inactive) | > 100 µM (inactive) | 94.4 µM (inactive) | 20.5 µM (inactive) | 33 µM (inactive) | > 100 µM (inactive) | > 100 µM (inactive) | 48.8 µM (inactive) | > 100 µM (inactive) | 45.2 µM (inactive) | > 100 µM (inactive) | 18.9 µM (inactive) | > 100 µM (inactive) | 20.7 µM (inactive) | 
9 | O=C1CC(n2ccnc2)c2c(Cl)sc(Cl)c21 (centres undefined) | 22.5 µM (inactive) | 20.3 µM (inactive) | 14.2 µM (inactive) | 19.8 µM (inactive) | 6.79 µM (inactive) | 6.3 µM (inactive) | 15.7 µM (inactive) | 4.94 µM (inactive) | 16.4 µM (inactive) | 18.1 µM (inactive) | 17.7 µM (inactive) | 23.8 µM (inactive) | 15.5 µM (inactive) | 15.6 µM (inactive) | 17.7 µM (inactive) | 15.3 µM (inactive) | 19.5 µM (inactive) | 17.4 µM (inactive) | 20.6 µM (inactive) | 
10 | CCOC(=O)Oc1cc2c(ccn2C)c2c1c1ccccc1n2C(=O)OCC | > 100 µM (inactive) |  | > 100 µM (inactive) | > 100 µM (inactive) | > 100 µM (inactive) | > 100 µM (inactive) | > 100 µM (inactive) | > 100 µM (inactive) | > 100 µM (inactive) | > 100 µM (inactive) | > 100 µM (inactive) | > 100 µM (inactive) | > 100 µM (inactive) | > 100 µM (inactive) | > 100 µM (inactive) | > 100 µM (inactive) | > 100 µM (inactive) | 76.7 µM (inactive) | > 100 µM (inactive) | 
11 | CO[C@]12CC(=O)C3(C(C[C@H]4CC5CC=C6C[C@@H](OC(C)=O)CC[C@]6(OC(C)=O)C5C[C@@]43C)C1)C1C[C@H]3[C@@H]4CC=C5C[C@@H](OC(C)=O)CC[C@]5(OC(C)=O)[C@H]4CC[C@]3(C)C12 (some centres undefined) | 21.7 µM (inactive) | 13.9 µM (inactive) | 6.55 µM (inactive) | 16.1 µM (inactive) | 19.8 µM (inactive) | 18.9 µM (inactive) | 10.7 µM (inactive) | 17.3 µM (inactive) |  | 22.9 µM (inactive) | 14.6 µM (inactive) | 14 µM (inactive) | 20.4 µM (inactive) | 11.4 µM (inactive) | 17.5 µM (inactive) | 17.5 µM (inactive) | 4.5 µM (inactive) | 18.5 µM (inactive) | 36.7 µM (inactive) | 17.8 µM (inactive)
12 | CCCCCCCCCCCCCCCCOc1ccc(/C=C/C2=[N+](CCCl)CCO2)cc1 | > 100 µM (inactive) | > 100 µM (inactive) | 25.5 µM (inactive) | > 100 µM (inactive) | 30.8 µM (inactive) | > 100 µM (inactive) | > 100 µM (inactive) | > 100 µM (inactive) |  | > 100 µM (inactive) | > 100 µM (inactive) | 56.1 µM (inactive) | > 100 µM (inactive) | > 100 µM (inactive) | 32.9 µM (inactive) | > 100 µM (inactive) | > 100 µM (inactive) | > 100 µM (inactive) | > 100 µM (inactive) | > 100 µM (inactive)
13 | C[C@H]1SC(c2ccc(Cl)cc2Cl)N(NC(=O)c2ccncc2)C1=O (some centres undefined) | 28.8 µM (inactive) | 43.2 µM (inactive) | 20 µM (inactive) | 53 µM (inactive) |  |  | 15.1 µM (inactive) | 8.59 µM (inactive) | 14.7 µM (inactive) | 27.5 µM (inactive) | 45.9 µM (inactive) | 36.9 µM (inactive) | 26.2 µM (inactive) | 36.7 µM (inactive) | 40.6 µM (inactive) | 21.8 µM (inactive) |  | 64.1 µM (inactive) | 45.7 µM (inactive) | 
14 | C[N+](C)(CCCCCC[N+](C)(C)CCCN1C(=O)c2cccc3cccc(c23)C1=O)CCCN1C(=O)c2cccc3cccc(c23)C1=O | > 100 µM (inactive) | > 100 µM (inactive) | 72.8 µM (inactive) | > 100 µM (inactive) |  | > 100 µM (inactive) | > 100 µM (inactive) | > 100 µM (inactive) | > 100 µM (inactive) | > 100 µM (inactive) | > 100 µM (inactive) | > 100 µM (inactive) | 33 µM (inactive) | > 100 µM (inactive) | > 100 µM (inactive) |  | > 100 µM (inactive) | > 100 µM (inactive) |  | 
15 | O=C(CCN1CCCCC1)Nc1ccc2sc3ccccc3c(=O)c2n1 | 18.2 µM (inactive) | 15.4 µM (inactive) | 6.46 µM (inactive) | 31.6 µM (inactive) | 11.8 µM (inactive) | 10.3 µM (inactive) | 11.9 µM (inactive) | 15.9 µM (inactive) |  | 10.2 µM (inactive) | 12.3 µM (inactive) | 7.67 µM (inactive) | 14.5 µM (inactive) | 15.9 µM (inactive) | 14.6 µM (inactive) | 13.6 µM (inactive) | 16 µM (inactive) | 28 µM (inactive) | 10.5 µM (inactive) | 14.4 µM (inactive)
